Measured values from ChEMBL document CHEMBL5634070, “Assessment of the structure-activity relationship and antileukemic activity of diacylpyramide compounds as human ClpP agonists” (Eur J Med Chem, 2023).
Activity calls are given as the source filed them. No cut-off for these calls is given here.

What was measured:
NB-4 [1] = assay: Antileukemic activity against human NB4 cells assessed as downregulation of NDUFV2 protein expression incubated for 24 hrs by Western blotting analysis; assay type: functional, cell-based
MV4-11 [2] = assay: Inhibition of mitochondrial respiration in human MV4-11 cells assessed as reduction in oxygen consumption rate at 10 uM incubated for 24 hrs; assay type: functional, cell-based
[3] = target: T1, ATP-dependent Clp protease proteolytic subunit, mitochondrial (Homo sapiens, UniProt Q16740); assay: Binding affinity to CLpP in human MOLM-13 cells assessed as thermal stabilization at 10 uM at 52.9 to 78 degreeC by cellular thermal shift assay; assay type: cell-based; details: filed as agonist
T1 sequence (Q16740 whole entry): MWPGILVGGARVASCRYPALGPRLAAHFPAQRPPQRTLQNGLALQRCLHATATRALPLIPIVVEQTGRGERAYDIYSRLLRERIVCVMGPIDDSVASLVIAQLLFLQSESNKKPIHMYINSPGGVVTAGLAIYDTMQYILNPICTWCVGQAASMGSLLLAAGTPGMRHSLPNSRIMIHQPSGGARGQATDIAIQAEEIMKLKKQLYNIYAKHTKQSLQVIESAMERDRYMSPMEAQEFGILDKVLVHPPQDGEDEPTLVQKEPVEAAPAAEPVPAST

NB-4 [4] = assay: Inhibition of mitochondrial respiration in human NB4 cells assessed as reduction in oxygen consumption rate at 10 uM incubated for 24 hrs; assay type: functional, cell-based
NB-4 [5] = assay: Antileukemic activity against human NB4 cells assessed as downregulation of UQCRC2 protein expression incubated for 24 hrs by Western blotting analysis; assay type: functional, cell-based
MOLM-13 [6] = assay: Inhibition of mitochondrial respiration in human MOLM-13 cells assessed as reduction in oxygen consumption rate at 10 uM incubated for 24 hrs; assay type: functional, cell-based
[7] = target: T1, ATP-dependent Clp protease proteolytic subunit, mitochondrial; assay: Binding affinity to human CLpP assessed as change in melting temperature by DSF assay; details: filed as agonist
MV4-11 [8] = assay: Inhibition of mitochondrial respiration in human MV4-11 cells assessed as reduction in oxygen consumption rate at 5 uM incubated for 24 hrs; assay type: functional, cell-based
NB-4 [9] = assay: Antileukemic activity against human NB4 cells xenografted in BALB/c mouse assessed as reduction in tumor volume at 30 mg/kg,ip administrated for 30 days; assay type: functional, organism-based; details: time 30.0 day
MV4-11 [10] = assay: Induction of apoptosis in human MV4-11 cells incubated for 24 to 72 hrs; assay type: functional, cell-based; details: time 24-72 hrs
NB-4 [11] = assay: Antileukemic activity against human NB4 cells assessed as downregulation of NDUFB8 protein expression incubated for 24 hrs by Western blotting analysis; assay type: functional, cell-based
HEL [12] = assay: Antileukemic activity against human HEL cells assessed as reduction in mitochondrial DNA content at 10 uM incubated for 24 hrs; assay type: functional, cell-based
MV4-11 [13] = assay: Antileukemic activity against human MV4-11 cells xenografted in BALB/c mouse assessed as reduction in tumor weight at 30 mg/kg,ip administrated for 30 days; assay type: functional, organism-based; details: time 30.0 day
NB-4 [14] = assay: Antileukemic activity against human NB4 cells assessed as downregulation of SDHB protein expression incubated for 24 hrs by Western blotting analysis; assay type: functional, cell-based
HEL [15] = assay: Antiproliferative activity against human HEL cells assessed as inhibition of cell growth incubated for 72 hrs by CCK-8 assay; assay type: functional, cell-based
NB-4 [16] = assay: Induction of apoptosis in human NB4 cells incubated for 24 to 72 hrs; assay type: functional, cell-based; details: time 24-72 hrs
MV4-11 [17] = assay: Antileukemic activity against human MV4-11 cells xenografted in BALB/c mouse assessed as reduction in tumor weight at 60 mg/kg,ip administrated for 30 days; assay type: functional, organism-based; details: time 30.0 day
MOLM-13 [18] = assay: Antileukemic activity against human MOLM-13 cells assessed as reduction in cellular ATP content at 10 uM incubated upto 48 hrs; assay type: functional, cell-based
NB-4 [19] = assay: Antileukemic activity against human NB4 cells assessed as downregulation of SDHA protein expression incubated for 24 hrs by Western blotting analysis; assay type: functional, cell-based
MV4-11 [20] = assay: Antileukemic activity against human MV4-11 cells xenografted in BALB/c mouse assessed as reduction in tumor volume at 60 mg/kg,ip administrated for 30 days; assay type: functional, organism-based; details: time 30.0 day
NB-4 [21] = assay: Antileukemic activity against human NB4 cells assessed as downregulation of NDUFA12 protein expression incubated for 24 hrs by Western blotting analysis; assay type: functional, cell-based
MOLM-13 [22] = assay: Antiproliferative activity against human MOLM-13 cells assessed as inhibition of cell growth incubated for 72 hrs by CCK-8 assay; assay type: functional, cell-based; details: MOLM-13, 72 h
NB-4 [23] = assay: Inhibition of mitochondrial respiration in human NB4 cells assessed as reduction in oxygen consumption rate at 5 uM incubated for 24 hrs; assay type: functional, cell-based
NB-4 [24] = assay: Antileukemic activity against human NB4 cells assessed as reduction in mitochondrial DNA content at 10 uM incubated for 24 hrs; assay type: functional, cell-based
MV4-11 [25] = assay: Antileukemic activity against human MV4-11 cells xenografted in BALB/c mouse assessed as reduction in tumor volume at 30 mg/kg,ip administrated for 30 days; assay type: functional, organism-based; details: time 30.0 day
MOLM-13 [26] = assay: Induction of apoptosis in human MOLM-13 cells incubated for 24 to 72 hrs; assay type: functional, cell-based; details: time 24-72 hrs
[27] = Toxicity in BALB/c mouse xenografted with human MV4-11 cells assessed as change in body weight at 60 mg/kg,ip administrated for 30 days; assay type: organism-based; details: in vivo, 720 h, time 30 day
NB-4 [28] = assay: Antiproliferative activity against human NB4 cells assessed as inhibition of cell growth incubated for 72 hrs by CCK-8 assay; assay type: functional, cell-based; details: NB-4, 72 h
[29] = Toxicity in BALB/c mouse xenografted with human MV4-11 cells assessed as change in body weight at 30 mg/kg,ip administrated for 30 days; assay type: organism-based; details: in vivo, 720 h, time 30 day
[30] = target: T1, ATP-dependent Clp protease proteolytic subunit, mitochondrial; assay: Binding affinity to CLpP in human MV4-11 cells assessed as thermal stabilization at 10 uM at 52.9 to 78 degreeC by cellular thermal shift assay; assay type: cell-based; details: filed as agonist
MV4-11 [31] = assay: Antiproliferative activity against human MV4-11 cells assessed as inhibition of cell growth incubated for 72 hrs by CCK-8 assay; assay type: functional, cell-based; details: MV4-11, 72 h
MV4-11 [32] = assay: Antileukemic activity against human MV4-11 cells assessed as reduction in mitochondrial DNA content at 10 uM incubated for 24 hrs; assay type: functional, cell-based
MOLM-13 [33] = assay: Inhibition of mitochondrial respiration in human MOLM-13 cells assessed as reduction in oxygen consumption rate at 5 uM incubated for 24 hrs; assay type: functional, cell-based
[34] = target: T1, ATP-dependent Clp protease proteolytic subunit, mitochondrial; assay: Binding affinity to CLpP in human HEL cells assessed as thermal stabilization at 10 uM at 52.9 to 78 degreeC by cellular thermal shift assay; assay type: cell-based; details: filed as agonist
NB-4 [35] = assay: Inhibition of colony formation in human NB4 cells incubated for 14 days; assay type: functional, cell-based; details: time 14.0 day
MOLM-13 [36] = assay: Antileukemic activity against human MOLM-13 cells assessed as reduction in mitochondrial DNA content at 10 uM incubated for 24 hrs; assay type: functional, cell-based
Cell membrane = assay: Induction of mitochondrial membrane potential loss in human MOLM-13 cells at 10 uM incubated upto 48 hrs by TMRE staining based assay
[37] = target: T1, ATP-dependent Clp protease proteolytic subunit, mitochondrial; assay: Agonist activity at human CLpP by measuring alpha-casein hydrolysis using alpha-casein as substrate by FITC staining based assay
NB-4 [38] = assay: Antileukemic activity against human NB4 cells xenografted in BALB/c mouse assessed as reduction in tumor weight at 30 mg/kg,ip administrated for 30 days; assay type: functional, organism-based; details: time 30.0 day
NB-4 [39] = assay: Antileukemic activity against human NB4 cells xenografted in BALB/c mouse assessed as reduction in tumor weight at 60 mg/kg,ip administrated for 30 days; assay type: functional, organism-based; details: time 30.0 day
MOLM-13 [40] = assay: Antiproliferative activity against human MOLM-13 cells assessed as inhibition of cell growth at 20 uM by CCK-8 assay relative to control; assay type: functional
MV4-11 [41] = assay: Antiproliferative activity against human MV4-11 cells cultured as 3D cells assessed as inhibition of cell growth; assay type: functional, cell-based
[42] = Toxicity in BALB/c mouse xenografted with human NB4 cells assessed as change in body weight at 30 mg/kg,ip administrated for 30 days; assay type: organism-based, NB-4; details: in vivo, 720 h, time 30 day
[43] = Toxicity in BALB/c mouse xenografted with human NB4 cells assessed as change in body weight at 60 mg/kg,ip administrated for 30 days; assay type: organism-based, NB-4; details: in vivo, 720 h, time 30 day
NB-4 [44] = assay: Antileukemic activity against human NB4 cells xenografted in BALB/c mouse assessed as reduction in tumor volume at 60 mg/kg,ip administrated for 30 days; assay type: functional, organism-based; details: time 30.0 day
[45] = target: T1, ATP-dependent Clp protease proteolytic subunit, mitochondrial; assay: Agonist activity at human CLpP by measuring alpha-casein hydrolysis using alpha-casein as substrate preincubated for 10 mins followed by substrate addition and measured after 120 mins by Coomassie brilliant blue staining based SDS-PAGE assay

For `CC[C@H](C)[C@H]1C(=O)N(Cc2ccc(OC)c3ccccc23)C[C@@H]2N(C(=O)NCc3ccc(Br)cc3)CCC(=O)N12`, the Activity (NB-4 [1]) was “Dose-Dependent Effect”, the inhibition (MV4-11 [2]) was “Active” and the Activity [3] was “Active”. For the same molecule, the inhibition (NB-4 [4]) was “Active”, the Activity (NB-4 [5]) was “Dose-Dependent Effect” and the inhibition (MOLM-13 [6]) was “Active”. For the same molecule, the ΔTm [7] was 21.8 °C, the inhibition (MV4-11 [8]) was “Active” and the Activity (NB-4 [9]) was “Active”. The Activity (MV4-11 [10]) was “Active”, the Activity (NB-4 [11]) was “Dose-Dependent Effect” and the Activity (HEL [12]) was “Active”. For the same molecule, the Activity (MV4-11 [13]) was “Active”, the Activity (NB-4 [14]) was “Dose-Dependent Effect” and the IC50 (HEL [15]) was 3.3 µM. The Activity (NB-4 [16]) was “Active”, the Activity (MV4-11 [17]) was “Active” and the Activity (MOLM-13 [18]) was “Active”. For the same molecule, the Activity (NB-4 [19]) was “Dose-Dependent Effect”, the Activity (MV4-11 [20]) was “Active” and the Activity (NB-4 [21]) was “Dose-Dependent Effect”. For the same molecule, the IC50 (MOLM-13 [22]) was 2.9 µM, the inhibition (NB-4 [23]) was “Active” and the Activity (NB-4 [24]) was “Active”. The Activity (MV4-11 [25]) was “Active”, the Activity (MOLM-13 [26]) was “Active” and the Activity [27] was “Non-Toxic”. For the same molecule, the IC50 (NB-4 [28]) was 4.9 µM, the Activity [29] was “Non-Toxic” and the Activity [30] was “Active”. The IC50 (MV4-11 [31]) was 5.8 µM, the Activity (MV4-11 [32]) was “Active” and the inhibition (MOLM-13 [33]) was “Active”. The Activity [34] was “Active”, the inhibition (NB-4 [35]) was “Dose-Dependent Effect” and the Activity (MOLM-13 [36]) was “Active”. The Activity (Cell membrane) was “Active”, the EC50 [37] was 0.54 µM and the Activity (NB-4 [38]) was “Active”. The Activity (NB-4 [39]) was “Active”, the inhibition at 20 µM (MOLM-13 [40]) was 99.6% and the Activity (MV4-11 [41]) was “Dose-Dependent Effect”. For the same molecule, the Activity [42] was “Non-Toxic”, the Activity [43] was “Non-Toxic” and the Activity (NB-4 [44]) was “Active”. For the same molecule, the EC50 [45] was 2.2 µM.
